According to patent publication US20240034753A1, “THERAPEUTIC PEPTIDES” (COHBAR, INC., priority 2020, published 2024):
Square brackets hold non-standard residues; d marks the D form. Ends that are not written are not given here. Peptide text beside a SMILES is read from it.

Experiments:
A172 Cells = test: PrestoBlue cell viability assay; format: cell-based; conditions: human, 10 μM
Description: The effect of the peptides on cell viability can be assessed in cultured cells using suitable assay of viability such as the PrestoBlue® assay (Thermo Fisher Scientific, Waltham, MA). Peptides were initially prepared as 10 mM stock in DMSO and tested at a final concentration of 10 μM (0.1% DMSO). […] PrestoBlue Assay Reagent was purchased from Thermo Fisher Scientific. A172 human brain glioblastoma cell line was purchased from American Type Culture Collection (Manassas, VA). A172 cells were grown in DMEM supplemented with 10% FBS with 100 IU/ml penicillin and 100 μg/ml streptomycin. Cultures were maintained at 37° C. in a humidified atmosphere of 5% CO2/95% air. A172 cells were seeded at 8,000 cells per well on 96-well plates. […] Cell viability was determined using a PrestoBlue Assay reagent […] according to the manufacturer's instructions. Absorption for each sample well on the plate was measured using a Cytation 3 plate reader at 560 nm and 590 nm (BioTek, Winooski, VT). Activity was calculated relative to 0.1% DMSO untreated control. Treatment with 0.1% DMSO alone was used as the cell viability activity control. The relative standard deviation of the DMSO control was <5%.

C2C12 Mouse Myoblasts = test: Glucose utilization (glucose remaining in medium); format: cell-based; conditions: peptide 10 μM, 18-22 hours, relative to 0.1% DMSO treated control cells
Description: The effect of the peptides on glucose metabolism can be assessed using an assay of glucose utilization in cultured cells such as mouse myoblasts. Peptides were initially prepared as 10 mM stock in DMSO and used at a final concentration of 10 μM (0.1% DMSO). C2C12 mouse myoblast cell line was purchased from American Type Culture Collection (Manassas, VA). C2C12 cultures were maintained at 37° C. in a humidified atmosphere of 5% CO2/95% air with medium changes every second day. C2C12 cells were grown in DMEM (1 g/L glucose) supplemented with 10% FBS with 100 IU/ml penicillin and 100 μg/ml streptomycin. C2C12 cells were seeded at 7,000 cells per well on 96-well plates and cultured to confluence. Once the cell reached confluence the media was changed to DMEM (1 g/L glucose) supplemented with 2% HS with 100 IU/ml penicillin and 100 μg/ml streptomycin and maintained at 37° C. in a humidified atmosphere of 5% CO2/95% air. 5 days post-induction of differentiation fresh DMEM (1 g/L glucose) supplemented with 2% HS with 100 IU/ml penicillin and 100 μg/ml streptomycin was added to cultures. Cells were maintained at 37° C. in a humidified atmosphere of 5% CO2 and 95% air for 5 hours. After 5 hours test peptides at 10 μM or controls (0.5 mM or 1 mM metformin in 1% DMSO) prepared in fresh differentiation medium were added to cells and the cultures were maintained at 37° C. in a humidified atmosphere of 5% CO2/95% air for 18-22 hours. At the end of the incubation culture media was removed from the cells and the remaining glucose concentration was measured using a Glucose Assay kit (Abcam) according to the manufacturer's instructions, using a Cytation 3 plate reader at 570 nm (BioTek, Winooski, VT). Glucose concentrations in the medium were calculated relative to 0.1% DMSO treated control cells. The relative standard deviation of the result for the 0.1% DMSO treated control was <20%. Metformin was used as a positive control for reduction of glucose levels (increased glucose utilization glucose levels for treatment with metformin (1 mM) treatment were <20% of the 0.1% DMSO treated control value. The results are reported in Table 11.

[1] = test system: SH-SY5Y Neuroblastoma Cells Exposed to Staurosporine; test: ATP levels in cells exposed to staurosporine (CellTiter-Glo); format: cell-based, human; conditions: peptide 10 μM plus staurosporine (40 μM), 18-20 hours; <100% cytoprotective, >100% synergistic
Description: Peptides were initially prepared as 10 mM stock in DMSO and tested at a final concentration of 10 μM (0.1% DMSO). […] […] CellTiter-Glo® Assay kit was purchased from Promega. SH-SY5Y human neuroblastoma cell line was purchased from American Type Culture Collection (Manassas, VA) and licensed from Memorial Sloan-Kettering Cancer Center (New York, NY). SH-SY5Y cells were grown in DMEM/F12 medium supplemented with 10% FBS with 100 IU/ml penicillin and 100 μg/ml streptomycin. Cultures were maintained at 37° C. in a humidified atmosphere of 5% CO2/95% air. SH-SY5Y cells were seeded at 30,000 cells per well on 96-well plates. […] ATP levels were determined using a CellTiter-Glo Assay kit (Promega) according to the manufacturer's instructions. Luminescence for each sample well on the plate was measured using a Cytation 3 plate reader (BioTek, Winooski, VT). […] A value less than 100% is indicative of a cytoprotective effect, while a value greater than 100% is indicative of a synergistic effect on viability.

[2] = test system: A172 human brain glioblastoma cell line; test: Caspase-Glo 3/7 assay of caspase 3/7 activity in cultured cells; format: cell-based; conditions: peptide 10 μM, 18-20 hours, relative to 0.1% DMSO control
Description: The effect of the peptides on cell death/survival can be assessed using a […] assay in cultured cells. Peptides were dissolved at 10 mM in DMSO as stock solutions for use at a final concentration of 10 μM. […] Caspase-Glo 3/7 Assay Reagent was purchased from Promega (Madison, WI). A172 human brain glioblastoma cell line was purchased from American Type Culture Collection (Manassas, VA). A172 cells were grown in DMEM supplemented with 10% FBS with 100 IU/ml penicillin and 100 μg/ml streptomycin. Cultures were maintained at 37° C. in a humidified atmosphere of 5% CO2/95% air. A172 cells were seeded at 8,000 cells per well on 96-well plates. […] Caspase 3/7 activity was determined using a Caspase-Glo 3/7 Assay kit (Promega) according to the manufacturer's instructions. Luminescence for each sample well on the plate was measured using a Cytation 3 plate reader (BioTek, Winooski, VT). Activity was calculated relative to 0.1% DMSO control.

| Molecule | PrestoBlue cell viability, Percent of Control Activity (A172 Cells) | Glucose Utilization (glucose concentration in medium), Percent of Untreated Control (C2C12 Mouse Myoblasts) | Percent of ATP Reduction Induced by Control [1] | Caspase 3/7 Activity, Percent of Control Activity [2] |
| --- | --- | --- | --- | --- |
| CC[C@H](C)[C@H](NC(=O)[C@H](Cc1c[nH]c2ccccc12)NC(=O)[C@H](CCC(N)=O)NC(=O)[C@@H](N)CCCNC(=N)N)C(=O)N[C@@H](CC(C)C)C(=O)N[C@@H](Cc1c[nH]cn1)C(=O)N[C@@H](CC(N)=O)C(=O)N[C@H](C)C(=O)NCC(=O)N[C@@H](CCSC)C(=O)N[C@@H](CO)C(=O)N[C@@H](Cc1ccccc1)C(=O)N[C@@H](Cc1ccccc1)C(=O)N[C@@H](CS)C(=O)O [compound 14] (H-RQWILHN[dA]GMSFFC-OH; N-terminus and C-terminus assumed) | 97.5% | 115.7% | 93.6% | 107.4% |
| MRRRMFSCYLY [compound 17] | 100.6% | 121.7% | 94.2% | 91.3% |
| CC[C@H](C)[C@H](NC(=O)[C@@H](NC(=O)CNC(=O)[C@@H](C)NC(=O)[C@@H](N)CCSC)C(C)C)C(=O)N[C@@H](CCCNC(=N)N)C(=O)N[C@@H](C)C(=O)N[C@H](C(=O)N[C@@H](CC(C)C)C(=O)N[C@H](C(=O)N[C@@H](CC(C)C)C(=O)O)C(C)C)C(C)C [compound 10] (H-M[dA]GVIRAVLVL-OH; N-terminus and C-terminus assumed) | 99.6% | 109.1% | 90.4% | 82.6% |
| MLLILTLVLL [compound 2] | 94.4% | 113.5% | 91.6% | 86.6% |
| CC[C@H](C)[C@H](NC(=O)[C@H](CC(C)C)NC(=O)[C@H](C)NC(=O)[C@@H](N)CCSC)C(=O)N[C@@H](CC(=O)O)C(=O)N[C@H](C(=O)N[C@@H](CC(C)C)C(=O)N[C@H](C(=O)N[C@@H](CC(C)C)C(=O)N[C@H](C)C(=O)O)C(C)C)[C@@H](C)O [compound 5] (H-MALIDTLVL[dA]-OH; N-terminus and C-terminus assumed) | 97.0% | 128.8% | 106.1% | 76.2% |
| CC[C@H](C)[C@H](NC(=O)[C@@H](NC(=O)[C@H](Cc1c[nH]cn1)NC(=O)[C@H](CCCNC(=N)N)NC(=O)[C@H](CC(=O)O)NC(=O)[C@H](Cc1ccc(O)cc1)NC(=O)[C@H](CC(C)C)NC(=O)[C@H](CC(C)C)NC(=O)[C@@H](NC(=O)[C@@H](N)Cc1c[nH]c2ccccc12)C(C)C)C(C)C)C(=O)NCC(=O)NCC(=O)N[C@@H](CO)C(=O)N[C@@H](CC(C)C)C(=O)N[C@@H](CS)C(=O)N[C@H](C(=O)N[C@@H](CCC(N)=O)C(=O)N[C@H](C(=O)N[C@@H](CCC(N)=O)C(=O)N[C@H](C(=O)N[C@@H](CCC(=O)O)C(=O)N[C@H](C)C(=O)O)C(C)C)C(C)C)C(C)C [compound 25] (H-WVLLYDRHVIGGSLCVQVQVE[dA]-OH; N-terminus and C-terminus assumed) | 96.5% | 107.2% | 82.7% | 108.8% |
| RRRMFSCYLY [compound 18] | 100.9% | 124.0% | 96.1% | 95.7% |
| CC[C@H](C)[C@H](NC(=O)[C@@H](NC(=O)[C@H](Cc1c[nH]cn1)NC(=O)[C@H](CCCNC(=N)N)NC(=O)[C@H](CC(=O)O)NC(=O)[C@H](Cc1ccc(O)cc1)NC(=O)[C@H](CC(C)C)NC(=O)[C@H](CC(C)C)NC(=O)[C@@H](NC(=O)[C@@H](N)Cc1c[nH]c2ccccc12)C(C)C)C(C)C)C(=O)NCC(=O)NCC(=O)N[C@@H](CO)C(=O)N[C@@H](CC(C)C)C(=O)N[C@@H](CS)C(=O)N[C@H](C(=O)N[C@H](C(=O)N[C@H](C(=O)N[C@@H](CCC(N)=O)C(=O)N[C@H](C(=O)N[C@@H](CCC(=O)O)C(=O)N[C@H](C)C(=O)O)C(C)C)C(C)C)C(C)C)C(C)C [compound 24] (H-WVLLYDRHVIGGSLCVVVQVE[dA]-OH; N-terminus and C-terminus assumed) | 96.7% | 109.1% | 80.4% | 108.8% |
